In patent US4076821A (priority 1976, dated 1978) one finds ED50 and LD50 data, which are given here for five compounds.

A word on the ED50: it is the dose that gives a 50% effect, or the effect in half of the subjects. As a reminder, the LD50 is the dose at which mortality reaches 50%. Read a low LD50 as greater toxicity.

One series can be described thus: animal or person. It counts as in vivo. The following applies: Rattus norvegicus, po, read-out: ED50, anti-apomorphine effect.
A further series in a line: in vivo. Conditions: mouse, po.

On to `O=C1NCN(c2ccc(F)cc2)C12CCN(C1CCC(c3ccc(F)cc3)(c3ccc(F)cc3)CC1)CC2` [Test Compound B, 8-[4,4-bis(p-fluorophenyl)cyclohexyl]-1-(p-fluorophenyl)-1,3,8-triazaspiro[4.5]decan-4-one], for which, in the series “animal or person”, the ED50 was 0.1 mg/kg.
On to `O=C1NCN(c2ccc(Cl)cc2)C12CCN(C1CCC(c3ccc(F)cc3)(c3ccc(F)cc3)CC1)CC2` [Test Compound E, 8-[4,4-bis(p-fluorophenyl)cyclohexyl]-1-(p-chlorophenyl)-1,3,8-triazaspiro[4.5]decan-4-one], for which the LD50 in the series “in vivo” is ≥ 464 mg/kg. For the same compound, the ED50 in the series “animal or person” amounted to 0.28 mg/kg.
Taken in the same sequence, the figures for `O=c1[nH]c2ccccc2n1C1CCN(CCCC(c2ccc(F)cc2)c2ccc(F)cc2)CC1` [Pimozide, 1-[1-(4,4-bis(p-fluorophenyl)butyl)-4-piperidyl]-2-benzimidazolinone, reference compound] were > 1000 mg/kg and 0.25 mg/kg.
For the compound `O=C(CCCN1CCC(O)(c2ccc(Cl)cc2)CC1)c1ccc(F)cc1` [Haloperidol, 1-[3-(p-fluorobenzoyl)propyl]-4-(p-chlorophenyl)-4-piperidinol, reference compound], the LD50 in “in vivo” is > 100 mg/kg. In addition, the ED50 in “animal or person” worked out at 0.5 mg/kg.
For `Cl.OC1(c2ccc(Cl)c(C(F)(F)F)c2)CCN(C2CCC(c3ccc(F)cc3)(c3ccc(F)cc3)CC2)CC1` [Test Compound A, 1-[4,4-bis(p-fluorophenyl)cyclohexyl]-4-(4-chloro-3-trifluoromethylphenyl)-4-piperidinol hydrochloride], in that order: ≥ 464 mg/kg and 2.46 mg/kg.
